Assay results reported in US7678787B2, “Pyrrolobenzodiazepine pyridine carboxamides and derivatives as follicle-stimulating hormone receptor antagonists” (Wyeth, priority 2005, dated 2010).
“And” between values parts separate entries of the source, which are not always exact repeats. Identical values can stand only once.

How the values were obtained:
hFSH-R = target: T1, hFSH-R (Homo sapiens, UniProt P23945); experiment: cAMP accumulation (RIA) in CHO-3D2 cells (hFSH-R), hFSH-induced; assay type: cell-based; conditions: inhibition of cAMP accumulation induced by hFSH at EC20, CHO-3D2 cells
T1 construct: expressed in transfected cells; host or cells: CHO-3D2 cells (CHO-K1 parental line)
T1 sequence (P23945 18-695): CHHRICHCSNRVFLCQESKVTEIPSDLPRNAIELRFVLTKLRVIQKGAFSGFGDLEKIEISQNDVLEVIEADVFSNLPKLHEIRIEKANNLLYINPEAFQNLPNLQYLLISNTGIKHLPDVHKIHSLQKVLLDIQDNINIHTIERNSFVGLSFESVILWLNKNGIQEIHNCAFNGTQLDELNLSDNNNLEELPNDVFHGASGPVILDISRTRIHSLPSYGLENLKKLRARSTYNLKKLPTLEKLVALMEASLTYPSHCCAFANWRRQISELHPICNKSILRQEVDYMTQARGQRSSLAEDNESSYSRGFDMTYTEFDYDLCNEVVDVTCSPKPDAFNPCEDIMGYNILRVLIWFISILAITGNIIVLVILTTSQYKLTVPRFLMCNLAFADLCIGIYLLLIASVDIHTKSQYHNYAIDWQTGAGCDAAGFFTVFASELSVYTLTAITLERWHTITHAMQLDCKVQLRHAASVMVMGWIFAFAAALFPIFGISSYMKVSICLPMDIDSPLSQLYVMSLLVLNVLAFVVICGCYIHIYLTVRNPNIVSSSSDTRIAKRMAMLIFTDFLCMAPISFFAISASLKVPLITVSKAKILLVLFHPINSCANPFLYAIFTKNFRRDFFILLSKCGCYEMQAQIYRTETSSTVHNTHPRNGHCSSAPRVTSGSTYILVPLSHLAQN
Procedure: IN VITRO BIO-ASSAY OF AGONISTS AND ANTAGONISTS TO THE FSH RECEPTOR. SELECTIVITY AND DEPENDENCY OF AGONISTS AND ANTAGONISTS TO THE FSH RECEPTOR
Compound Vehicle: Stock compounds were solubilized in 100% DMSO (Sigma-Aldrich Chemical Co., St. Louis, Mo.) at a concentration of 30 mM. The compounds subsequently were diluted in sterile assay medium consisting of Opti-MEM® I (Invitrogen/Life Technologies, Carlsbad, Calif.) with 0.1% (w/v) BSA (Sigma-Aldrich) prior to use in the bio-assay. The final concentration of DMSO in the assay was 0.1%.
Plated cells are then incubated at 37° C. in a humidified 5% CO2/95% air atmosphere.
Assay: On the day of the assay, cells were washed three times with 100 μl/well of assay medium consisting of Opti-MEM® I (Invitrogen/Life Technologies) with 0.1% (w/v) BSA (Sigma-Aldrich). Medium was removed and 100 μl of assay medium was added to each well. Plates were incubated for an additional 30 minutes at 37° C. […] Reactions were terminated by the addition of 50 μl of 0.2N hydrochloric acid to each well and cAMP-accumulation was measured by radioimmunoassay (RIA) using a commercially available kit (Amersham Biosciences, Piscataway, N.J.).
All test compounds were evaluated in a dose-response paradigm ranging from 0.01 to 30 μM. Controls and test compounds were evaluated in quadruplicate in a 96-well format.
Along with the test compounds, FSH was run also as a postive control in the agonist mode using concentrations ranging from 0.1-1000 ng/ml.
Data were analyzed by one-way analysis of variance and significant differences between treatments and control determined by Least Significant Difference test.
Test compounds were compared to the effect of purified human FSH.

human FSH receptor = target: T2, human FSH receptor (Homo sapiens, UniProt P23945); experiment: FSH receptor-dependent CRE-luciferase reporter gene assay (CHO FSH-R 6CRE-Luc cells); assay type: cell-based; conditions: dose-response format in presence of EC50 of purified human FSH; * n=3, ** n=2 averages
T2 construct: host or cells: CHO-K1 (CHO FSH-R 6CRE-Luc, 1D7 cells)
T2 sequence (P23945 18-695): T1 sequence (P23945 18-695)
Excerpt: FOLLICLE-STIMULATING HORMONE RECEPTOR-DEPENDENT CRE-LUCIFERASE REPORTER GENE ASSAY FOR THE IDENTIFICATION OF FOLLICLE-STIMULATING HORMONE (FSH) ANTAGONISTS
A Chinese hamster ovarian cell line that stably produces the human FSH receptor and a luciferase reporter gene regulated by cAMP response elements was used to identify and determine the relative potencies of human FSH receptor antagonists. See for example, Kelton, C. A., et al. Mol. Cell. Endocrinol. 89:141-151 (1992), Tilly, J. L., et al. Endocrinology 131:799-806(1992), and George, S. E., et al. J. Biomol. Screening 2:235-240 (1997).
Compound Vehicle: Stock compounds were solubilized in an appropriate vehicle, e.g., phosphate buffered saline (PBS) or dimethyl sulfoxide (DMSO), at 30 mM. The compounds subsequently were diluted in DMSO to working dilutions of 1 and 20 or 30 mM for 2-dose testing format and 1 μM-10 mM for dose-response format. The DMSO dilutions were diluted 500-fold in sterile growth medium [D-MEM/F-12 (GIBCO/BRL; Grand Island, N.Y.) containing 15 mM HEPES, 2 mM l-glutamine, pyridoxine hydrochloride, phenol red and 5% FETALCLONE® II (HyClone Laboratories, Inc; Logan, Utah), 0.2% DMSO, 100 units penicillin G/ml, and 100 μg streptomycin sulfate/ml (GIBCO/BRL)]. The concentration of the vehicle in each of the compound dilutions was the same.
Positive Controls: Purified human FSH (>98%) was purchased from Cortex Biochem, Inc. (San Leandro, Calif.) and 3-[(2S*,5R*)-5-{[2-(1H-Indol-3-yl)-ethylcarbamoyl]-methyl}-4-oxo-2-(5-phenylethynyl-thiophen-2-yl)-thiazolidin-3-yl]-benzamide (an FSH-R thiazolidinone antagonist) was prepared by processes described by R. A. Scheuerman et al. in U.S. Pat. No. 6,426,357 (Affymax).
The CHO FSH-R 6CRE-Luc cells (1D7 cells) were obtained from Affymax (Palo Alto, Calif.). These Chinese hamster ovary cells (CHO-K1) were engineered genetically to stably express the recombinant human FSH receptor gene and a luciferase reporter gene under the regulation of 6 copies of a cAMP response element. The cells were plated one day prior to treatment into 96-well white opaque plates at a density of 50,000 cells/100 μl/well in growth medium. On the day of treatment, the growth medium was removed from the wells by aspiration and 50 μl of fresh growth medium was added to each well. The cells were incubated at 37° C. in a humidified incubator with 5% CO2/95% air.
The treated cells were incubated for 4 hours at 37° C. in a humidified incubator with 5% CO2/95% air. At the end of the incubation period, luciferase activity was measured by chemiluminescence using a commercially available kit (LucScreen, Tropix, Inc., Bedford, Mass.) according to the manufacturer's specifications, except that Buffer 1 and Buffer 2 were mixed together in equal proportion prior to the addition of 100 μl of the combined reagents to each well. Chemiluminescence was detected using a luminometer (EG & G Berthold Microlumat LB 96 P, Wallac, Gaithersburg, Md.) with chemiluminescence measured for 1 sec/well. Background luminescence was measured for each well prior to the addition of the LucScreen reagent.
In the 96-well 2-dose format, each compound was tested in duplicate at each dose. […] One plate was used to test a maximum of 22 compounds.
The EC50 of purified human FSH alone was tested in triplicate with each test compound. The doses chosen to test each compound were extrapolated from the initial 2-dose screening process. Along with the test compounds, purified human FSH also was tested in a dose response (0.03, 0.1, 0.3, 1, 3, 10, and 30 ng/ml) for a positive control and quality control. One plate was used for 3 test compounds and the FSH positive control.
Luciferase activity is expressed as relative light units/sec/well. Luciferase activity in antagonist was compared to the appropriate negative and positive controls. For 2-dose testing, results are reported as luciferase activity and are expressed as percent inhibition of the response obtained from the EC50 of FSH.

Row | SMILES | IC50 (hFSH-R) [nM] | melting point | IC50 (human FSH receptor) [nM]
1 | COc1cc(C(=O)N2Cc3ccc(C(=O)NCc4cccnc4)n3Cc3ccccc32)ccc1-c1ccccc1C [Example 1] | 200 | 165 to 167 °C | 1000
2 | Cc1ccccc1-c1ccc(C(=O)N2Cc3ccc(C(=O)NCc4cccnc4)n3Cc3ccccc32)cc1C [Example 3] | 80 | 148 to 150 °C | 920
3 | Cc1ccccc1-c1ccc(C(=O)N2Cc3ccc(C(=O)NCc4ccc[n+]([O-])c4)n3Cc3ccccc32)cc1C [Example 4] | 800 | 170 to 173 °C | 950
4 | COc1ccccc1-c1ccc(C(=O)N2Cc3ccc(C(=O)NCc4cncc(Br)c4)n3Cc3ccccc32)cc1 [Example 6, N-[(5-BROMOPYRIDIN-3-YL)METHYLL]-10-[(2′-METHOXY-1,1′-BIPHENYL-4-YL)CARBONYL]-10,11-DIHYDRO-5H-PYRROLO[2,1-C][1,4]BENZODIAZEPINE-3-CARBOXAMIDE] | 5400 | 180 to 184 °C | 8900
5 | N#Cc1ccccc1-c1ccc(C(=O)N2Cc3ccc(C(=O)NCc4cccnc4)n3Cc3ccccc32)cc1 [Example 30] | 270 |  | 1100
6 | CC(C)c1ccccc1-c1ccc(C(=O)N2Cc3ccc(C(=O)NCc4cccnc4)n3Cc3ccccc32)cc1 [Example 31] | 330 |  | 940
7 | COC(=O)Cc1ccccc1-c1ccc(C(=O)N2Cc3ccc(C(=O)NCc4cccnc4)n3Cc3ccccc32)cc1 [Example 32] | 20 |  | 156
8 | CCOc1ccccc1-c1ccc(C(=O)N2Cc3ccc(C(=O)NCc4cccnc4)n3Cc3ccccc32)cc1 [Example 33] | 900 |  | 1450
9 | O=C(NCc1cccnc1)c1ccc2n1Cc1ccccc1N(C(=O)c1ccc(-c3ccccc3O)cc1)C2 [Example 34] | 590 |  | 1550
10 | CC(C)C(=O)c1ccccc1-c1ccc(C(=O)N2Cc3ccc(C(=O)NCc4cccnc4)n3Cc3ccccc32)cc1 [Example 36] | 430 |  | 1860
11 | CC(C)C(O)c1ccccc1-c1ccc(C(=O)N2Cc3ccc(C(=O)NCc4cccnc4)n3Cc3ccccc32)cc1 (stereo not shown) [Example 37] | 490 |  | 1640
12 | NC(=O)Cc1ccccc1-c1ccc(C(=O)N2Cc3ccc(C(=O)NCc4cccnc4)n3Cc3ccccc32)cc1 [Example 38] | 90 |  | 78

Further lines, results first:

Row | IC50 (hFSH-R) [nM] | melting point | IC50 (human FSH receptor) [nM] | SMILES
13 | 100 | 122 to 126 °C and 118 °C and 122 °C | 116 | CC(O)c1ccccc1-c1ccc(C(=O)N2Cc3ccc(C(=O)NCc4cccnc4)n3Cc3ccccc32)cc1 (racemic) [Example 52]
14 | 250 |  | 414 | CNC(=O)Cc1ccccc1-c1ccc(C(=O)N2Cc3ccc(C(=O)NCc4cccnc4)n3Cc3ccccc32)cc1 [Example 39]
15 | 320 |  | 921 | CN(C)C(=O)Cc1ccccc1-c1ccc(C(=O)N2Cc3ccc(C(=O)NCc4cccnc4)n3Cc3ccccc32)cc1 [Example 40]
16 | 300 |  | 1000 | Cc1cc(C(=O)N2Cc3ccc(C(=O)NCc4cccnc4)n3Cc3ccccc32)ccc1-c1ccccc1C(C)O (stereo not shown) [Example 50]
17 | 810 |  | 3670 | CCNC(=O)Cc1ccccc1-c1ccc(C(=O)N2Cc3ccc(C(=O)NCc4cccnc4)n3Cc3ccccc32)cc1 [Example 66]
18 | 1100 |  | 4960 | CC(C)(C)c1ccc(C(=O)N2Cc3ccc(C(=O)NCc4cccnc4)n3Cc3ccccc32)cc1 [Example 80]
19 | 1200 |  | 5820 | CN(C)c1ccc(C(=O)N2Cc3ccc(C(=O)NCc4cccnc4)n3Cc3ccccc32)cc1 [Example 84]
20 | 1100 |  | 6440 | O=C(NCc1cccnc1)c1ccc2n1Cc1ccccc1N(C(=O)c1ccc(OC(F)(F)F)cc1)C2 [Example 85]
21 | 400 |  | 4960 | CCCc1ccc(C(=O)N2Cc3ccc(C(=O)NCc4cccnc4)n3Cc3ccccc32)cc1 [Example 98]
22 | 800 |  | 5820 | CCN(CC)c1ccc(C(=O)N2Cc3ccc(C(=O)NCc4cccnc4)n3Cc3ccccc32)cc1 [Example 102]
23 | 400 |  | 3000 | Cc1cc(C(=O)N2Cc3ccc(C(=O)NCc4cccnc4)n3Cc3ccccc32)ccc1-c1cccs1 [Example 104]
24 | 6700 |  | 10500 | O=C(NCc1cccnc1)c1ccc2n1Cc1ccccc1N(C(=O)c1ccc(NCc3ccccc3)nc1)C2 [Example 119]
25 | > 30000 |  | 36500 | COc1ccc(CNc2ccc(C(=O)N3Cc4ccc(C(=O)NCc5cccnc5)n4Cc4ccccc43)cn2)cc1 [Example 122]
